Where two headings read alike, the source gives them in different places.
What was measured:
THP-1 cells = assay: TNFα generation assay; type: cell-based, human; conditions: Homo sapiens, THP-1, 7 h, IFN-γ-differentiated THP-1 cells on human IgG-coated plate, cultured 7 hours; read-out: TNFα generation inhibitory activity (IC50)
Protocol: THP-1 cells (2×10^5 cells/ml), which were human monocytoid cells, were cultured in the presence of 10 ng/ml IFN-γ (Roche) for 2 days, so that the cells were induced to differentiate into macrophage-like cells. The differentiation-induced THP-1 cells were recovered, and the cells (1×10^6 cell/ml) were then allowed to react with a predetermined concentration of test compound at room temperature for 30 minutes. On the other hand, 100 μl of human IgG (10 μg/ml, SIGMA-ALDRICH) diluted with PBS was added to a 96-well plate, and it was then incubated at room temperature overnight. Thereafter, the resultant was washed with PBS twice to produce a human IgG-coated plate. Subsequently, a cell solution that contained a compound was inoculated on the human IgG-coated plate (5×10^4 cells/well), and it was then cultured for 7 hours. Thereafter, the cultured solution was recovered, and the amount of TNFα secreted into the culture solution was then measured by the ELISA method (Roche/R & D Systems) or the AlphaLISA method (PerkinElmer).

[1] = target: T1, glutathione S-transferase (GST)-fused full-length human Syk protein (Homo sapiens, UniProt P43405); assay: Syk enzyme assay; type: biochemical
T1 construct: (GST)-fused full-length human Syk protein; GST (glutathione S-transferase); purchased Carna Biosciences
Summary of the method: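 IC50 values come from a time-resolved FRET readout (615 and 665 nm) of substrate phosphorylation, measured after an EDTA stop and 1 h antibody binding. The kinase reaction ran 40 min at room temperature with 27 μM ATP and 0.4 μM biotin-peptide, following a 15 min compound preincubation with baculovirus-made GST-full-length human Syk.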

[2] = Syk enzyme assay, Test Example 1, read-out: IC50 of Syk-inhibitory activity
[3] = read-out: Syk-inhibitory activity (IC50)

## NC(=O)c1cc(F)c(N[C@@H]2CCCC[C@@H]2N)nc1Nc1cncc(-c2ccccc2)c1 (relative stereo) [Example 2-1, 6-(cis-2-aminocyclohexylamino)-5-fluoro-2-((5-phenylpyridin-3-yl)amino)nicotinamide]
THP-1 cells
  IC50: ≤ 200 nM

## Cc1cccc(Nc2nc(N[C@@H]3CCCC[C@@H]3N)c(F)cc2C(N)=O)c1 (relative stereo) [Example 2-3, 6-(cis-2-aminocyclohexylamino)-5-fluoro-2-((3-methyl-phenyl)amino)nicotinamide]
THP-1 cells
  IC50: ≤ 200 nM

## NC(=O)c1cc(F)c(N[C@@H]2CCCC[C@@H]2N)nc1Nc1ccc(N2CCOCC2)cc1 (relative stereo) [Example 2-5, 6-(cis-2-aminocyclohexylamino)-5-fluoro-2-((4-(morpholin-4-yl)phenyl)amino)nicotinamide]
THP-1 cells
  IC50: ≤ 200 nM

## COc1cc(Nc2nc(N[C@@H]3CCCC[C@@H]3N)c(F)cc2C(N)=O)cc(OC)c1OC (relative stereo) [Example 2-7, 6-(cis-2-aminocyclohexylamino)-5-fluoro-2-((3,4,5-trimethoxy-phenyl)amino)nicotinamide]
THP-1 cells
  IC50: ≤ 200 nM

## NC(=O)c1cc(F)c(N[C@@H]2CCCC[C@@H]2N)nc1Nc1ccc(N2CCOCC2)nc1 (relative stereo) [Example 2-20, 6-(cis-2-aminocyclohexylamino)-5-fluoro-2-((6-(morpholin-4-yl)pyridin-3-yl)amino)nicotinamide]
THP-1 cells
  IC50: ≤ 200 nM

## NC(=O)c1cc(F)c(N[C@@H]2CCCC[C@@H]2N)nc1Nc1cnc2c(ccn2CCN2CCCC2)c1 (relative stereo) [Example 4-22, 6-(cis-2-aminocyclohexylamino)-5-fluoro-2-((1-(2-(pyrrolidin-1-yl)ethyl)-1H-pyrrolo[2,3-b]pyridin-5-yl)amino)nicotinamide]
THP-1 cells
  IC50: ≤ 200 nM

## NC(=O)c1cc(F)c(NC2CCCCC2N)nc1Nc1cncc(NC(=O)c2ccc3c(c2)OCCO3)c1 (centres unmarked) [Example 027-035]
[1]; [2]
  IC50: 10 to 50 nM

## NC(=O)c1cc(F)c(NC2CCCCC2N)nc1Nc1cncc(NC(=O)c2ccc3occc3c2)c1 (centres unmarked) [Example 027-037]
[1]; [2]
  IC50: 10 to 50 nM

## NC(=O)c1cc(F)c(NC2CCCCC2N)nc1Nc1cncc(NC(=O)c2ccc3sccc3c2)c1 (centres unmarked) [Example 027-038]
[1]; [2]
  IC50: 10 to 50 nM

## NC(=O)c1cc(F)c(NC2CCCCC2N)nc1Nc1cncc(NC(=O)c2csc3ccccc23)c1 (centres unmarked) [Example 027-039]
[1]; [2]
  IC50: 10 to 50 nM

## NC(=O)c1cc(F)c(NC2CCCCC2N)nc1Nc1cncc(NC(=O)c2cc3ccccc3s2)c1 (centres unmarked) [Example 027-040]
[1]; [2]
  IC50: 10 to 50 nM

## NC(=O)c1cc(F)c(NC2CCCCC2N)nc1Nc1cncc(NC(=O)c2cc3ccccc3o2)c1 (centres unmarked) [Example 027-041]
[1]; [2]
  IC50: < 10 nM

## CN(C)C(=O)Cn1ccc2c(Nc3nc(N[C@@H]4CCCC[C@@H]4N)c(F)cc3C(N)=O)ccnc21 [Example 029-004]
[1]; [2]
  IC50: < 10 nM

## NC(=O)c1cc(F)c(NC2CCCC[C@@H]2N)nc1Nc1ccnc2c1ccn2CC(=O)N1CCCCC1 (some centres unmarked) [Example 029-005]
[1]; [2]
  IC50: < 10 nM

## NC(=O)c1cc(F)c(NC2CCCC[C@@H]2N)nc1Nc1ccnc2c1ccn2CC(=O)N1CCOCC1 (some centres unmarked) [Example 029-006]
[1]; [2]
  IC50: < 10 nM

## CNC(=O)c1cc2c(Nc3nc(NC4CCCCC4N)c(F)cc3C(N)=O)ccnc2n1C (centres unmarked) [Example 029-008]
[1]; [2]
  IC50: 10 to 50 nM

## CN(C)C(=O)c1cc2c(Nc3nc(N[C@@H]4CCCC[C@@H]4N)c(F)cc3C(N)=O)ccnc2n1C [Example 029-009]
[1]; [2]
  IC50: 100 to 1000 nM

## Cn1c(C(=O)N2CCOCC2)cc2c(Nc3nc(NC4CCCC[C@@H]4N)c(F)cc3C(N)=O)ccnc21 (some centres unmarked) [Example 029-010]
[1]; [2]
  IC50: 100 to 1000 nM

## Cn1c(C(=O)NCCN2CCOCC2)cc2c(Nc3nc(N[C@@H]4CCCC[C@@H]4N)c(F)cc3C(N)=O)ccnc21 [Example 029-011]
[1]; [2]
  IC50: 100 to 1000 nM

## NC(=O)c1cc(Nc2nc(N[C@@H]3CCCC[C@@H]3N)c(F)cc2C(N)=O)ccn1 [Example 029-012]
[1]; [2]
  IC50: < 10 nM

## CNC(=O)c1cc(Nc2nc(NC3CCCC[C@@H]3N)c(F)cc2C(N)=O)ccn1 (some centres unmarked) [Example 029-013]
[1]; [2]
  IC50: 10 to 50 nM

## CN(C)C(=O)c1cc(Nc2nc(NC3CCCC[C@@H]3N)c(F)cc2C(N)=O)ccn1 (some centres unmarked) [Example 029-014]
[1]; [2]
  IC50: 50 to 100 nM

## NCCNc1nc(Nc2cccc(C(=O)Nc3ccccc3)c2)c(C(N)=O)cc1F [Example 30, 6-(2-aminoethylamino)-2-(3-(anilinocarbonyl)phenylamino)-5-fluoronicotinamide]
[1]; [3]
  IC50: ≤ 1000 nM

## NCCNc1nc(Nc2cccc(C(=O)N3CCCCC3)c2)c(C(N)=O)cc1F [Example 031-002]
[1]; [2]
  IC50: 100 to 1000 nM

## NCCNc1nc(Nc2cccc(C(=O)NC3CCCCC3)c2)c(C(N)=O)cc1F [Example 31-3, 6-((2-aminoethyl)amino)-2-((3-(cyclohexylaminocarbonyl)phenyl)amino)-5-fluoronicotinamide]
[1]; [3]
  IC50: ≤ 1000 nM

## COc1cc(Nc2nc(NC(C(N)=O)C(C)C)c(F)cc2C(N)=O)cc(OC)c1 (centres unmarked) [Example 32, 6-(1-aminocarbonyl-2-methylpropylamino)-2-(3,5-dimethoxyphenylamino)-5-fluoro nicotinamide]
[1]; [3]
  IC50: ≤ 1000 nM

## COc1cc(Nc2nc(NC(C)C(N)=O)c(F)cc2C(N)=O)cc(OC)c1 (centres unmarked) [Example 33-1, 6-((2-amino-1-methyl-2-oxoethyl)amino)-2-(3,5-dimethoxyphenylamino)-5-fluoronicotinamide]
[1]; [3]
  IC50: ≤ 1000 nM

## COc1cc(Nc2nc(NC(C)(C)C(N)=O)c(F)cc2C(N)=O)cc(OC)c1 [Example 033-002]
[1]; [2]
  IC50: 100 to 1000 nM

## COc1cc(Nc2nc(NCCC(N)=O)c(F)cc2C(N)=O)cc(OC)c1 [Example 033-003]
[1]; [2]
  IC50: 100 to 1000 nM

## COc1cc(Nc2nc(N[C@@H](C(N)=O)C(C)(C)C)c(F)cc2C(N)=O)cc(OC)c1 [Example 033-005]
[1]; [2]
  IC50: 100 to 1000 nM

## COc1cc(Nc2nc(NC3CCCC3C(N)=O)c(F)cc2C(N)=O)cc(OC)c1 (centres unmarked) [Example 033-007]
[1]; [2]
  IC50: 100 to 1000 nM

## Cc1cc(C)cc(Nc2nc(NCCN)c(Cl)cc2C(N)=O)c1 [Example 035-008]
[1]; [2]
  IC50: < 10 nM

## NC[C@@H](Nc1nc(Nc2ccc3ncccc3c2)c(C(N)=O)cc1F)c1ccccn1 [Example 39-5, (R)-6-((2-amino-1-(pyridin-2-yl)ethyl)amino)-5-fluoro-2-((quinolin-6-yl)amino)nicotinamide]
[1]; [2]
  IC50: 50 to 100 nM

## Cc1ccc(S(=O)(=O)Nc2cccc3cc(Nc4nc(NC5CCCC[C@@H]5N)c(F)cc4C(N)=O)cnc23)cc1 (stereo partly drawn) [Example 41-4, 6-(cis-2-aminocyclohexylamino)-5-fluoro-2-((8-(4-methylphenylsulphonamide)quinolin-3-yl)amino)nicotinamide]
[1]; [2]
  IC50: 50 to 100 nM

## NC(=O)c1cc(F)c(NC2CCCC[C@@H]2N)nc1Nc1cnc2c(NS(=O)(=O)c3ccc(C(F)(F)F)cc3)cccc2c1 (stereo partly drawn) [Example 41-7, 6-(cis-2-aminocyclohexylamino)-5-fluoro-2-((8-(4-(trifluoromethyl)phenylsulphonamide)-quinolin-3-yl)amino)nicotinamide]
[1]; [2]
  IC50: 100 to 1000 nM

## NC(=O)c1cc(F)c(NC2CCCC[C@@H]2N)nc1Nc1cnc2c(NS(=O)(=O)Cc3ccccc3)cccc2c1 (stereo partly drawn) [Example 41-9, 6-(cis-2-aminocyclohexylamino)-5-fluoro-2-((8-(phenylmethylsulphonamide)quinolin-3-yl)amino)nicotinamide]
[1]; [2]
  IC50: 10 to 50 nM

## Cc1cc(Nc2nc(N[C@H](CCCN)[C@H](C)N)c(F)cc2C(N)=O)cnc1C [Example 045-000]
[1]; [2]
  IC50: 100 to 1000 nM

## Cc1cc(Nc2nc(N[C@H](CCCN(C)C)[C@H](C)N)c(F)cc2C(N)=O)cnc1C [Example 046-000]
[1]; [2]
  IC50: 100 to 1000 nM
